Experimental data as given in PubChem BioAssay AID1963834 (Molecular Pharmacology Branch, DTP, NCI, 2024).
pIC50: −log10 of the molar value. Where “and” joins values, the source holds several entries; their conditions need not be identical. Identical values can stand only once.

Tested on: 873145-292-R-J1-PDC complex spheroid viability
Test: Anticancer human tumor 873145-292-R-J1-PDC patient-derived renal clear cell carcinoma cell line growth inhibition [POLQ]
Conditions: for viability, T/C: stronger effect = lower value
Experimental: Multicellular complex tumor spheroid response to Polymerase (POL) inhibitors (novobiocin, ART-558, RP6685) in combination with a variety of drugs and investigational agents in selected tumor cell lines
The POL inhibitors (novobiocin, ART-558, and RP6685) were evaluated both individually and in combination with standard of care and investigational anticancer small molecules within a complex spheroid model of solid tumors. . Complex spheroids include a stromal component modeled by human endothelial cells (HUVEC) and fibroblasts modeled by human mesenchymal stem cells (MSCs). The concentration ranges selected for each drug and investigational agent were based upon clinically achievable concentrations if the clinical Cmax of the agent was known.
Compounds. The drugs and investigational agents: novobiocin (NSC847541), ART-558 (NSC835418), RP-6685 (NSC848927), peposertib (NSC802822), ceralasertib (NSC780249), elimusertib (NSC800525), camonsertib (NSC841442), AZD-1390 (NSC803789), olaparib (NSC753686), talazoparib (NSC767125), rucaparib (NSC756644), sotorasib (NSC818433), MRTX-1133 (NSC836407), SN-38 (NSC673596), topotecan (NSC609699), epotoside (NSC141540), doxorubicin (NSC123127), gemcitabine (NSC613327), 5-fluorouracil (NSC19893), paclitaxel (NSC125973), vemurafenib (NSC761431), MSA-2 (NSC828583), SN-011 (NSC837082), adavosertib (NSC754352), prexasertib (NSC758257), carboplatin (NSC241240) and oxaliplatin (NSC266046), were obtained from the National Cancer Institute (NCI) Developmental Therapeutics Program Chemical Repository (21). The FDA-approved anticancer drug set is available from the Developmental Therapeutics Program at https://dtp.cancer.gov/organization/dscb/obtaining/. […] The stock solutions were prepared in dimethyl sulfoxide (DMSO, Sigma-Aldrich, St. Louis, MO, cat. D2650), except for the platinum compounds which were prepared in saline (Quality Biological, Gaithersburg, MD, cat. 114-055-101), at 800-fold the tested concentration and stored at -70 degrees C prior to their use. All drugs and investigational agents were tested over a range starting from a high concentration at or near the clinical Cmax and decreasing in half-log increments. If the clinical Cmax for an agent had not been determined, the highest concentration tested was 10 microM, except for SN-38, which was tested at a high concentration of 1 microM.
Cell Culture. All cells were maintained in an incubator at 37 degrees C and 5% CO2 with 95% humidity. The PDC lines were cultured according to standard operating procedures established by the NCI PDMR (https://pdmr.cancer.gov). Table 3 of the manuscript, lists the cell lines along with the number of the three cell types plated to form the mct-spheroids and media for tumor cell growth. After thawing, all PDC lines, except 997537-175-T-J1-PDC and 415267-285-R-J2-PDC, were cultured in Matrigel-coated flasks prepared with a working solution of 1X Ham's F-12 nutrient mix, without supplementation (Thermo Fisher Scientific, cat. 11765054), 100 U/mL penicillin-streptomycin (Thermo Fisher Scientific, cat. 15140122), and 2.5% Matrigel (Corning Inc., Corning, NY, cat. 354248) for the first three passages. The two PDC lines 997537-175-T-J1-PDC and 415267-285-R-J2-PDC were cultured on uncoated flasks. The 857933-349-R-J2-PDC line was cultured in 6C/Colon 1B media containing advanced DMEM/F-12 (Thermo Fisher Scientific, cat. 12634028), 10 mM HEPES (Thermo Fisher Scientific, cat. 15630080), 1X GlutaMAX supplement (Thermo Fisher Scientific, cat. 35050061), 0.1 mg/mL primocin (InvivoGen, San Diego, CA, cat. ant-pm-2), 10% defined fetal bovine serum, heat inactivated (HyClone Laboratories Inc., Logan, UT, cat. SH30070.03HI), 50% L-WRN conditioned media (ATCC, cat. CRL-3276), 1.25 mM N-Acetyl-L-cysteine (Sigma-Aldrich, cat. A9165), 10 mM nicotinamide (Sigma-Aldrich, cat. N0636), 1X B-27 supplement (Thermo Fisher Scientific, cat. 17504044), 1X N-2 supplement (Thermo Fisher Scientific, cat. […]
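Further: spheroids exposed to compounds for 7 days before viability readout.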
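Wherever viability, T/C is given: luminescence signal used as surrogate for viable cell content; 100% = DMSO vehicle control viability.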

Cn1ncnc1[C@H]1c2n[nH]c(=O)c3cc(F)cc(c23)N[C@@H]1c1ccc(F)cc1
viability, T/C (compound 0.000316 µM): 99.5% and 108% and 99.7% | viability, T/C (compound 0.001 µM): 102% and 92.8% and 98% | viability, T/C (compound 0.00316 µM): 91.2% and 96.3% and 103% | viability, T/C (compound 0.01 µM): 107% and 97.5% and 102% | viability, T/C (compound 0.0316 µM): 108% and 102% and 94.4% | viability, T/C (compound 0.1 µM): 101% and 97.9% and 88.9% | pIC50 (curve of compound): < 7.00

Cn1ncnc1[C@H]1c2n[nH]c(=O)c3cc(F)cc(c23)N[C@@H]1c1ccc(F)cc1 + Cc1cccc(N(C)C(=O)C2C(O)CCN2c2nc(C)cc(C(F)(F)F)c2C#N)c1
pIC50 (curve of first compound, second compound 0.0316 µM): < 7.00 | pIC50 (curve of first compound, second compound 0.1 µM): < 7.00 | pIC50 (curve of first compound, second compound 0.316 µM): < 7.00 | pIC50 (curve of first compound, second compound 1 µM): < 7.00 | pIC50 (curve of first compound, second compound 3.16 µM): < 7.00 | pIC50 (curve of first compound, second compound 10 µM): < 7.00 | viability, T/C (second compound 0.0316 µM, first compound 0.000316 µM): 104% | viability, T/C (second compound 0.0316 µM, first compound 0.001 µM): 94% | viability, T/C (second compound 0.0316 µM, first compound 0.00316 µM): 102% | viability, T/C (second compound 0.0316 µM, first compound 0.01 µM): 97.5% | viability, T/C (second compound 0.0316 µM, first compound 0.0316 µM): 95.7% | viability, T/C (second compound 0.0316 µM, first compound 0.1 µM): 98% | viability, T/C (second compound 0.1 µM, first compound 0.000316 µM): 104% | viability, T/C (second compound 0.1 µM, first compound 0.001 µM): 103% | viability, T/C (second compound 0.1 µM, first compound 0.00316 µM): 91.6% | viability, T/C (second compound 0.1 µM, first compound 0.01 µM): 93.9% | viability, T/C (second compound 0.1 µM, first compound 0.0316 µM): 105% | viability, T/C (second compound 0.1 µM, first compound 0.1 µM): 88.5% | viability, T/C (second compound 0.316 µM, first compound 0.000316 µM): 112% | viability, T/C (second compound 0.316 µM, first compound 0.001 µM): 99% | viability, T/C (second compound 0.316 µM, first compound 0.00316 µM): 87.6% | viability, T/C (second compound 0.316 µM, first compound 0.01 µM): 89.6% | viability, T/C (second compound 0.316 µM, first compound 0.0316 µM): 91.7% | viability, T/C (second compound 0.316 µM, first compound 0.1 µM): 89.3% | viability, T/C (second compound 1 µM, first compound 0.000316 µM): 102% | viability, T/C (second compound 1 µM, first compound 0.001 µM): 95.2% | viability, T/C (second compound 1 µM, first compound 0.00316 µM): 105% | viability, T/C (second compound 1 µM, first compound 0.01 µM): 97% | viability, T/C (second compound 1 µM, first compound 0.0316 µM): 97.7% | viability, T/C (second compound 1 µM, first compound 0.1 µM): 96.3% | viability, T/C (second compound 3.16 µM, first compound 0.000316 µM): 97% | viability, T/C (second compound 3.16 µM, first compound 0.001 µM): 96.3% | viability, T/C (second compound 3.16 µM, first compound 0.00316 µM): 105% | viability, T/C (second compound 3.16 µM, first compound 0.01 µM): 93.5% | viability, T/C (second compound 3.16 µM, first compound 0.0316 µM): 99.8% | viability, T/C (second compound 3.16 µM, first compound 0.1 µM): 91.8% | viability, T/C (second compound 10 µM, first compound 0.000316 µM): 103% | viability, T/C (second compound 10 µM, first compound 0.001 µM): 89.7% | viability, T/C (second compound 10 µM, first compound 0.00316 µM): 109% | viability, T/C (second compound 10 µM, first compound 0.01 µM): 90.3% | viability, T/C (second compound 10 µM, first compound 0.0316 µM): 97.8% | viability, T/C (second compound 10 µM, first compound 0.1 µM): 86.9%

COc1cccc(OCCCN)c1-c1cc(Nc2cnc(C#N)cn2)n[nH]1
viability, T/C (compound 0.00316 µM): 103% and 116% and 101% | viability, T/C (compound 0.01 µM): 89.6% and 98.2% and 94.2% | viability, T/C (compound 0.0316 µM): 68.6% and 71.2% and 98.3% | viability, T/C (compound 0.1 µM): 60.8% and 74% and 71.8% | viability, T/C (compound 0.316 µM): 63.5% and 75.3% and 79.5% | viability, T/C (compound 1 µM): 72.4% and 84.5% and 73.1% | pIC50 (curve of compound): < 6.00

CC1COCCN1c1cc(-c2ccnn2C)c2ccnc(-c3ccn[nH]3)c2n1 (stereo not given)
viability, T/C (compound 0.0316 µM): 88.9% and 83.1% and 97% | viability, T/C (compound 0.1 µM): 77.3% and 74.3% and 90% | viability, T/C (compound 0.316 µM): 67.5% and 67.3% and 68.5% | viability, T/C (compound 1 µM): 51.8% and 50.8% and 56.1% | viability, T/C (compound 3.16 µM): 40% and 41.9% and 52.3% | viability, T/C (compound 10 µM): 39.3% and 41.4% and 57.8% | pIC50 (curve of compound): 5.92 and < 5.00

CCCS(=O)(=O)Nc1ccc(F)c(C(=O)c2c[nH]c3ncc(-c4ccc(Cl)cc4)cc23)c1F
viability, T/C (compound 0.0316 µM): 113% and 104% and 102% | viability, T/C (compound 0.1 µM): 96.8% and 107% and 99.6% | viability, T/C (compound 0.316 µM): 109% and 103% and 107% | viability, T/C (compound 1 µM): 95.2% and 107% and 104% | viability, T/C (compound 3.16 µM): 109% and 98.7% and 92.9% | viability, T/C (compound 10 µM): 76.7% and 72.3% and 60.6% | pIC50 (curve of compound): < 5.00
